According to patent publication US8415469B2, “Compounds and methods for kinase modulation, and indications therefor” (Plexxikon Inc., priority 2005, dated 2013):
pIC50: −log10 of the molar value.

Columns and labels:
Format in all cases: biochemical
EphB2 = molecular target: T1, EphB2 (Homo sapiens, UniProt P29323); experiment: Z'-Lyte FRET kinase assay (Invitrogen), EphB2; settings: read-out: IC50, activity toward kinase EphB2
T1 construct: purchased Invitrogen (assay run by Invitrogen)
T1 sequence (P29323 19-1055): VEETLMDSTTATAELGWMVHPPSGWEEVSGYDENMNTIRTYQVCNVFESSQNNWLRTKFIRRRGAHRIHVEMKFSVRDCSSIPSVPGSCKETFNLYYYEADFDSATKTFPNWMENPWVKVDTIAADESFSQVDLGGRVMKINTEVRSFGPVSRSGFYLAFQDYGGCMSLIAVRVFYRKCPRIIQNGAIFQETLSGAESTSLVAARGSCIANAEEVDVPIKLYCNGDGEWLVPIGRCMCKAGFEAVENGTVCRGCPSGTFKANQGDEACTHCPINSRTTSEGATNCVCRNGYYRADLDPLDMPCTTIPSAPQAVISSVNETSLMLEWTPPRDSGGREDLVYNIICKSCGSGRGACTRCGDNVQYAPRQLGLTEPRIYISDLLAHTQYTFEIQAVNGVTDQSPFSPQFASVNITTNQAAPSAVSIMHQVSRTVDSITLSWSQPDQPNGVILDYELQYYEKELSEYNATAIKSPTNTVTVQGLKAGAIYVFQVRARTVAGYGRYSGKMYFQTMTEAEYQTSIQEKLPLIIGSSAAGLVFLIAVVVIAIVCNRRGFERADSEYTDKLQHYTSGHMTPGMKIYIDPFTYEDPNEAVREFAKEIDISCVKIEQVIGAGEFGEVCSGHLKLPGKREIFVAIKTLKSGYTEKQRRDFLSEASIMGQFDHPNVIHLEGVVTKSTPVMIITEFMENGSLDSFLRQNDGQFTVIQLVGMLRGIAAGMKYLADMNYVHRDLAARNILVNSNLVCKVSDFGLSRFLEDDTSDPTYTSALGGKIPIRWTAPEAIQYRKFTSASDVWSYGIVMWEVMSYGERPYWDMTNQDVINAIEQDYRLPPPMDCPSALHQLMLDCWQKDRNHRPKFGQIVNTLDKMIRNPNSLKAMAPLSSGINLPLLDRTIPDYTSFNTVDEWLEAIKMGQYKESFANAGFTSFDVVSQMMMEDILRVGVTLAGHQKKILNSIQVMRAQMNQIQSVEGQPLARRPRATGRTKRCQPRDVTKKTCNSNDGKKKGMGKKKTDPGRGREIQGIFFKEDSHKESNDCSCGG
Excerpt: The effect of potential modulators of kinase activity can be measured in a variety of different assays known in the art. For example, direct radiometric, indirect FRET or AlphaScreen assays may be used to assess the level of phosphorylation of a substrate in the presence of test compounds in order to determine the inhibitory affect of the compound on the kinase. Invitrogen (Carlsbad, Calif.) uses a FRET based assay for Btk, EGFR, EphB2, Flt3, lrak4, Kdr, MAP2K1, MAPKAPK2, PDGFRB, PKC theta, Stk6 and Yes. For these assays, compounds of the invention were screened by Invitrogen using Z′-Lyte™ kinase assay.
Briefly, the Invitrogen kinase assay involves use of a specific peptide substrate optimized for each kinase, containing a fluorophore at each end that make up the FRET pair. The peptide sensitivity to proteolytic cleavage depends on phosphorylation of the peptide. Non-phosphorylated peptide is cleaved by a protease while peptide phosphorylated by the kinase is not cleaved. Cleavage of the peptide disrupts the FRET between the donor (coumarin) and acceptor (fluorescein) fluorophores, resulting in an increase in the ratio of donor emission to acceptor emission. The emission ratio of coumarin to fluorescein is used to assess the reaction progress. The extent of phosphorylation is determined from the emission ratio, which is low when the kinase is active (phosphorylated peptide is not cleaved, FRET pair connected) or higher for inhibited kinase (non-phosphorylated peptide is cleaved, FRET pair separated). Thus, the assay involves a kinase reaction in the presence of varying concentrations of a given compound, a development reaction with site specific protease, and detection of the fluorescent emission ratio of coumarin and fluorscein. […] Reaction conditions for each kinase are determined to provide optimal reaction times, incubation temperature, kinase and ATP concentrations. Test samples are made up in 1× kinase buffer (50 mM HEPES pH 7.5, 50 mM MgCl2, 5 mM EGTA, 0.05% BRIJ-35) and compound at desired concentration prepared in DMSO such that the final DMSO is 1%. […] Typically, assay plates are prepared to 10 μl final volume per sample, adding 2.5 μl of compound at 4× the desired concentration in 4% DMSO (serial dilution of compound provides concentration curve), 5 μl of the desired kinase mixed with Z′-LYTE™ peptide substrate (2× in 2× kinase buffer, final peptide at 2 μM), and 2.5 μl of 4×ATP solution. All kinase except for MAP2K1 were at 10 μM ATP in the kinase reaction, while MAP2K1 was at 100 μM. Samples are mixed and the kinase reaction is incubated 1 hour at room temperature, after which 5 μl of development solution is added and mixed. After incubation for another 1 hour at room temperature, 5 μl of stop reagent is added to each sample and mixed. The fluorescence signals are measured to determine the emission ratio.

Yes = molecular target: T2, Yes (Homo sapiens, UniProt P07947); experiment: Z'-Lyte FRET kinase assay (Invitrogen), Yes; settings: read-out: IC50, activity toward kinase Yes
T2 construct: purchased Invitrogen (Carlsbad, Calif.), screening service
T2 sequence (P07947 whole entry): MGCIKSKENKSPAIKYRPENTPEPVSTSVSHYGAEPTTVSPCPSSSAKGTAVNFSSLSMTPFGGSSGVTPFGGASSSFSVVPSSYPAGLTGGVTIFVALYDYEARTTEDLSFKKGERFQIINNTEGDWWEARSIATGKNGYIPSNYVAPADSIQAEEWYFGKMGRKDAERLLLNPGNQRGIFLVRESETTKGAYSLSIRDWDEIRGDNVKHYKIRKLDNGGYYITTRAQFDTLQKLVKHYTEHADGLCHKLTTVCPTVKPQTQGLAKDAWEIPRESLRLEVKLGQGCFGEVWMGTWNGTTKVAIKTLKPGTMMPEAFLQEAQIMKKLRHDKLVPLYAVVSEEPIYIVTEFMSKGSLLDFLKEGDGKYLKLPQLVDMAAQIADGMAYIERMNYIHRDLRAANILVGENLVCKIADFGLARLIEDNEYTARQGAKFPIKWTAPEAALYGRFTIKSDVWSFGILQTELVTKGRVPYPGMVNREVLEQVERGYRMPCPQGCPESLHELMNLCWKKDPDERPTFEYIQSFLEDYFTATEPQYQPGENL
How it was run: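 Serially diluted compound (1% DMSO final) is mixed with kinase plus 2 μM peptide substrate in pH 7.5 HEPES buffer, then ATP is added to 10 μM. After 1 h at room temperature, site-specific protease is added for another hour, reactions are stopped and fluorescence ratio measured.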

B-Raf V600E = molecular target: T3, B-Raf V600E (Homo sapiens, UniProt P15056, V600E); experiment: AlphaScreen kinase assay, B-Raf V600E; settings: read-out: IC50, activity toward kinase B-Raf V600E
T3 construct: P4254. pFastBacBD-CDC37 BRAF D437-K722-X, V600E; His6 with pFastBac HT leader (TEV site) (N); made in house; host or cells: Sf9 (baculovirus; chaperone CDC37 co-expressed)
T3 sequence (P15056 with tags, fused parts or gaps V600E): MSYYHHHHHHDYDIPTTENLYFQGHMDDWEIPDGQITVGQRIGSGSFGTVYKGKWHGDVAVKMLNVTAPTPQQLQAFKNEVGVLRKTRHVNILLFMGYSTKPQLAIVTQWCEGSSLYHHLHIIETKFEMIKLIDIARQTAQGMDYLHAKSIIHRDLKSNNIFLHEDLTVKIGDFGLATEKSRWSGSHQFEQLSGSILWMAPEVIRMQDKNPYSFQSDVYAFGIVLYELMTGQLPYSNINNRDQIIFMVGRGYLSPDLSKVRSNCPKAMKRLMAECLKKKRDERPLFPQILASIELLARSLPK

B-Raf = molecular target: T4, B-Raf (Homo sapiens, UniProt P15056); experiment: AlphaScreen kinase assay, B-Raf; settings: read-out: IC50, activity toward kinase B-Raf
T4 construct: purchased Upstate Biotechnology
T4 sequence (P15056 whole entry): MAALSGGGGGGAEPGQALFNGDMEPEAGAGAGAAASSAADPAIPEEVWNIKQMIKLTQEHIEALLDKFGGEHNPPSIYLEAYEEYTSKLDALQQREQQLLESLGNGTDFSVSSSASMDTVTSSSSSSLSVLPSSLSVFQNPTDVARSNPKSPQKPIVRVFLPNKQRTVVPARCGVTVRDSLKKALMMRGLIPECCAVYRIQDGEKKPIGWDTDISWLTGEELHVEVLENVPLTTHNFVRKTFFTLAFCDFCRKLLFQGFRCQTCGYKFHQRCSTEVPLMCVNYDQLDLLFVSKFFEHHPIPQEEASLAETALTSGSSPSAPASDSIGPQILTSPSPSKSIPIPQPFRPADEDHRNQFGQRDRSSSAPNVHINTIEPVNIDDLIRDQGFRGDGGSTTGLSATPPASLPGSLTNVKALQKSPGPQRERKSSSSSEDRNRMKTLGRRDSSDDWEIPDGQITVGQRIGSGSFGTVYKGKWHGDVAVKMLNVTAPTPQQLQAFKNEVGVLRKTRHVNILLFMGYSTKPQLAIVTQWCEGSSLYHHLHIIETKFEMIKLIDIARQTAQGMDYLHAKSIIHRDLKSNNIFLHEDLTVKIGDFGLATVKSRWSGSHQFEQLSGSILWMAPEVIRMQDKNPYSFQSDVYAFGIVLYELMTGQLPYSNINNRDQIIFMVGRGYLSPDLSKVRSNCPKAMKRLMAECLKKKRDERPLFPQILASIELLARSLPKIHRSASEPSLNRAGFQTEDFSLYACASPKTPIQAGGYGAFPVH

Kdr = molecular target: T5, Kdr (Homo sapiens, UniProt P35968); experiment: Z'-Lyte FRET kinase assay (Invitrogen), Kdr; settings: read-out: IC50, activity toward kinase Kdr
T5 construct: purchased Invitrogen (assay run by Invitrogen)
T5 sequence (P35968 20-1356): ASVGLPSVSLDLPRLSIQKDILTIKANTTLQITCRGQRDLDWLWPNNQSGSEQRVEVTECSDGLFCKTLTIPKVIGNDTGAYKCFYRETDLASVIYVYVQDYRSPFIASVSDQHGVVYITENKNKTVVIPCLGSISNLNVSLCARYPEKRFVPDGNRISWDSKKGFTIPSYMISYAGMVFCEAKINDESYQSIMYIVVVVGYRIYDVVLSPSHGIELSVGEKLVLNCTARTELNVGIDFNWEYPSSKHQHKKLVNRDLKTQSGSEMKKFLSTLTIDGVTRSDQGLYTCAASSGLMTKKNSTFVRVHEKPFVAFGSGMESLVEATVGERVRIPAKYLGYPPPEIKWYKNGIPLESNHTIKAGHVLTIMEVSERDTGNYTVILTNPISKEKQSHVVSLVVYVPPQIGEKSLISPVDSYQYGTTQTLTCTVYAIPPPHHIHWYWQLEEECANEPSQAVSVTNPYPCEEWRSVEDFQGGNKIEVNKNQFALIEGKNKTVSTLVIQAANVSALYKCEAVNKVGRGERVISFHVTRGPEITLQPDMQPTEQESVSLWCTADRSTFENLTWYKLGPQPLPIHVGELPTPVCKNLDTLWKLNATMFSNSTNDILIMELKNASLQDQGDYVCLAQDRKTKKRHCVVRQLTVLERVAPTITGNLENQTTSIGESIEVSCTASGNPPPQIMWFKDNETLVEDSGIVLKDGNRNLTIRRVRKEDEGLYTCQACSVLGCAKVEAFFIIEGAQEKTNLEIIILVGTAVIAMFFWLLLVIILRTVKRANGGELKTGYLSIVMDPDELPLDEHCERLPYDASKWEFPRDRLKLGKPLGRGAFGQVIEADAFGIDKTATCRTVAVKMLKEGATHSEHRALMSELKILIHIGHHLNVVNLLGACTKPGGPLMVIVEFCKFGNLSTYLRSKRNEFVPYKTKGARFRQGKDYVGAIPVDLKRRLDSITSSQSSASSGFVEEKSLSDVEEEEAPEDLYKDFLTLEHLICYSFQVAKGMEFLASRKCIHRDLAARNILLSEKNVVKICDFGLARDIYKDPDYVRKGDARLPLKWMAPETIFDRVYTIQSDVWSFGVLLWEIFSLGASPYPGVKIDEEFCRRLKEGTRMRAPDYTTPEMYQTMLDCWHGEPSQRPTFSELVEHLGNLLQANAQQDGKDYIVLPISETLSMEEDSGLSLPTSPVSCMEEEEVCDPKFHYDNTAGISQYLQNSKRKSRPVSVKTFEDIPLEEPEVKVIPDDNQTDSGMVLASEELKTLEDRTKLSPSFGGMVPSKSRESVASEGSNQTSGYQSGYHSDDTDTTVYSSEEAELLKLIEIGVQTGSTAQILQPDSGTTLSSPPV
Excerpt: For example, direct radiometric, indirect FRET or AlphaScreen assays may be used to assess the level of phosphorylation of a substrate in the presence of test compounds in order to determine the inhibitory affect of the compound on the kinase. […] For these assays, compounds of the invention were screened by Invitrogen using Z′-Lyte™ kinase assay.
Briefly, the Invitrogen kinase assay involves use of a specific peptide substrate optimized for each kinase, containing a fluorophore at each end that make up the FRET pair. The peptide sensitivity to proteolytic cleavage depends on phosphorylation of the peptide. Non-phosphorylated peptide is cleaved by a protease while peptide phosphorylated by the kinase is not cleaved. Cleavage of the peptide disrupts the FRET between the donor (coumarin) and acceptor (fluorescein) fluorophores, resulting in an increase in the ratio of donor emission to acceptor emission. The emission ratio of coumarin to fluorescein is used to assess the reaction progress. […] Thus, the assay involves a kinase reaction in the presence of varying concentrations of a given compound, a development reaction with site specific protease, and detection of the fluorescent emission ratio of coumarin and fluorscein. […] Reaction conditions for each kinase are determined to provide optimal reaction times, incubation temperature, kinase and ATP concentrations. Test samples are made up in 1× kinase buffer (50 mM HEPES pH 7.5, 50 mM MgCl2, 5 mM EGTA, 0.05% BRIJ-35) and compound at desired concentration prepared in DMSO such that the final DMSO is 1%. […] All kinase except for MAP2K1 were at 10 μM ATP in the kinase reaction, while MAP2K1 was at 100 μM. Samples are mixed and the kinase reaction is incubated 1 hour at room temperature, after which 5 μl of development solution is added and mixed. After incubation for another 1 hour at room temperature, 5 μl of stop reagent is added to each sample and mixed. The fluorescence signals are measured to determine the emission ratio.

Ret = molecular target: T6, Ret (Homo sapiens, UniProt P07949); experiment: AlphaScreen kinase assay, Ret; settings: read-out: IC50, activity toward kinase Ret
T6 construct: P1378.pET-SF BI-PTP RET H661-R1012 HIS; made in house
T6 sequence (P07949 with tags, fused parts or gaps): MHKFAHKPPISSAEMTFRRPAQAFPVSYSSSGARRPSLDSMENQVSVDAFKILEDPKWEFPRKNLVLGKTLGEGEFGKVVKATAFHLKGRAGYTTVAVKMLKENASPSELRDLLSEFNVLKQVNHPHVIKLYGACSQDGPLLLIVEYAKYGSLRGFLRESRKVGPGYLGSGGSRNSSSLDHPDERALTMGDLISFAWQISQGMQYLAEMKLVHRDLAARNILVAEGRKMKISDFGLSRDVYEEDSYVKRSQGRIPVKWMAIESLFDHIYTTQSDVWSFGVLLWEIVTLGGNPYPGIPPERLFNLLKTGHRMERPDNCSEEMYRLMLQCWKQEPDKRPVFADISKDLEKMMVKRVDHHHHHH

Btk = molecular target: T7, Btk (Homo sapiens, UniProt Q06187); experiment: Z'-Lyte FRET kinase assay (Invitrogen), Btk; settings: read-out: IC50, activity toward kinase Btk
T7 construct: purchased Invitrogen (assay run by Invitrogen)
T7 sequence (Q06187 whole entry): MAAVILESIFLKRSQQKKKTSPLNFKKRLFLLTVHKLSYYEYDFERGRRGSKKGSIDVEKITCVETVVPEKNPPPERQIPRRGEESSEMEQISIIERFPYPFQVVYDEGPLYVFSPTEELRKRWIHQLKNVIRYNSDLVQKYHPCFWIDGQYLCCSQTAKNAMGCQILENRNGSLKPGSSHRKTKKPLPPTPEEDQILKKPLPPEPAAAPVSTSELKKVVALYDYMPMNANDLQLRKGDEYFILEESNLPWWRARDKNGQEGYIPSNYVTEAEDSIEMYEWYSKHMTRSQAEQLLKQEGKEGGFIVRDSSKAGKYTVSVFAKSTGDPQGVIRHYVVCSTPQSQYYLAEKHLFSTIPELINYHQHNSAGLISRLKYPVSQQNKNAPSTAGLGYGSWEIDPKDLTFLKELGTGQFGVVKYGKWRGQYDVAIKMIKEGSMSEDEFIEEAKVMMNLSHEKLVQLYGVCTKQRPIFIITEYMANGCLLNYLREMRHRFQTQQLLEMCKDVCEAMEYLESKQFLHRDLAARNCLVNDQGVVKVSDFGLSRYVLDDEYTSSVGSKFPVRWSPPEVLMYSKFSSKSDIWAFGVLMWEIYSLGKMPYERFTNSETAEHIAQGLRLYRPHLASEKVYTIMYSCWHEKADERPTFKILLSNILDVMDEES

Abl = molecular target: T8, Abl (Homo sapiens, UniProt P00519); experiment: AlphaScreen kinase assay, Abl; settings: read-out: activity toward kinase Abl, IC50
T8 construct: P1121. pET-SPEC BI-PTP Abl G227-V515-X; His6 (N); made in house; host or cells: E. coli (PTP1B co-expressed)
T8 sequence (P00519 with tags, fused parts or gaps): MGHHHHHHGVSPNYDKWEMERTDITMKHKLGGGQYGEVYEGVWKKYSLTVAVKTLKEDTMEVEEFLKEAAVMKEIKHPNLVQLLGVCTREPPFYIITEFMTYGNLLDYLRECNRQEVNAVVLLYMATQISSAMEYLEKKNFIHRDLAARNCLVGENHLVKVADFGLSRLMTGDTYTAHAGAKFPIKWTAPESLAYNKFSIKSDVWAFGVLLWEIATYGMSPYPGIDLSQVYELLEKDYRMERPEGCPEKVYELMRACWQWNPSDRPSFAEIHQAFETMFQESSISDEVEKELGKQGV
How it was run: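 Stock 20 mM compound in DMSO, diluted 1:3 serially to 8 final concentrations. Kinase phosphorylates biotinylated peptide; donor (streptavidin) and acceptor (anti-phospho antibody) beads then associate. Reduced acceptor emission indicates inhibition.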

Fms = molecular target: T9, Fms (Homo sapiens, UniProt P07333); experiment: AlphaScreen kinase assay, Fms; settings: read-out: IC50, activity toward kinase Fms
T9 construct: purchased Upstate Biotechnology

FGFR1 = molecular target: T10, FGFR1 (Homo sapiens, UniProt P11362, C488A/C584S); experiment: AlphaScreen kinase assay, FGFR1; settings: read-out: IC50, activity toward kinase FGFR
T10 construct: P1351.pET N6 BI-PTP FGFR A458-E765-X C488A, C584S; made in house; host or cells: E. coli (PTP1B co-expressed)
T10 sequence (P11362 458-765 C488A/C584S): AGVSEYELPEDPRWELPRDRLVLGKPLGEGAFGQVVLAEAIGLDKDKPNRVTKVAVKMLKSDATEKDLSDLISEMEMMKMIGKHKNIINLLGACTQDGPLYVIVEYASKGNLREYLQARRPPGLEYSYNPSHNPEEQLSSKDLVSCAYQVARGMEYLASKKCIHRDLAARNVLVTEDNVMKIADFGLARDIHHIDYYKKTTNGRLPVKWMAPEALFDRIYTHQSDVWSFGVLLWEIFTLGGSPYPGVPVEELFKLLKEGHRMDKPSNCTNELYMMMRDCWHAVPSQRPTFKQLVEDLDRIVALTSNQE

Kit = molecular target: T11, Kit (Homo sapiens, UniProt P10721); experiment: AlphaScreen kinase assay, Kit; settings: read-out: IC50, activity toward kinase Kit
T11 construct: P1332.N6 BI PTP KIT M552-K948-X COD; His6 (N); made in house; host or cells: E. coli (PTP1B co-expressed)
T11 sequence (P10721 with tags, fused parts or gaps): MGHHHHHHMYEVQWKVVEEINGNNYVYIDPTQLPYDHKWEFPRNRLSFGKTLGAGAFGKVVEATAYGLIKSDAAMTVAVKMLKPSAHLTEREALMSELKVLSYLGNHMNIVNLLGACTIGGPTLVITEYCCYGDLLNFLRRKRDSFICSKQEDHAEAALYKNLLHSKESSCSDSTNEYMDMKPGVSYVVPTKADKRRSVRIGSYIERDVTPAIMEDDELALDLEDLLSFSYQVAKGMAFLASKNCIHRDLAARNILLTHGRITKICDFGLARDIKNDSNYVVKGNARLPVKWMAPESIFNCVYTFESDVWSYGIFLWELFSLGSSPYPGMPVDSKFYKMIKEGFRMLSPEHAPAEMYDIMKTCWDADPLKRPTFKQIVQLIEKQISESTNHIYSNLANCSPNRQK

Jnk3 = molecular target: T12, Jnk3 (Homo sapiens, UniProt P53779); experiment: AlphaScreen kinase assay, Jnk3; settings: read-out: IC50, activity toward kinase Jnk3
T12 construct: purchased Upstate Biotechnology
T12 sequence (P53779 whole entry): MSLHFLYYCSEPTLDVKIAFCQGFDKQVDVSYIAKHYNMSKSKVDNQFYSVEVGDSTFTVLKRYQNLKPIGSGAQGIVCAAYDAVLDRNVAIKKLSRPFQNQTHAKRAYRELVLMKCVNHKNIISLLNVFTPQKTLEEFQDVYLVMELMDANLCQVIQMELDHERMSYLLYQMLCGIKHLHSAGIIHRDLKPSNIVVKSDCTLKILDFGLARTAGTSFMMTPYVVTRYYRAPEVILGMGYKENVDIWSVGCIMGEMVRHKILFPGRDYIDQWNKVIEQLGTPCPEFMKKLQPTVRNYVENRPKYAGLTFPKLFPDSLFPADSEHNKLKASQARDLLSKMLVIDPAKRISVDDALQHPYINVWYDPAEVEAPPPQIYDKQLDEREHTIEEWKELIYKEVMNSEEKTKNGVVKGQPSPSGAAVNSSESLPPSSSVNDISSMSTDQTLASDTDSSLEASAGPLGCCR

Stk6 = molecular target: T13, Stk6 (Homo sapiens, UniProt O14965); experiment: Z'-Lyte FRET kinase assay (Invitrogen), Stk6; settings: read-out: IC50, activity toward kinase Stk6
T13 construct: purchased Invitrogen (Carlsbad, Calif.), screening service
T13 sequence (O14965 1-403): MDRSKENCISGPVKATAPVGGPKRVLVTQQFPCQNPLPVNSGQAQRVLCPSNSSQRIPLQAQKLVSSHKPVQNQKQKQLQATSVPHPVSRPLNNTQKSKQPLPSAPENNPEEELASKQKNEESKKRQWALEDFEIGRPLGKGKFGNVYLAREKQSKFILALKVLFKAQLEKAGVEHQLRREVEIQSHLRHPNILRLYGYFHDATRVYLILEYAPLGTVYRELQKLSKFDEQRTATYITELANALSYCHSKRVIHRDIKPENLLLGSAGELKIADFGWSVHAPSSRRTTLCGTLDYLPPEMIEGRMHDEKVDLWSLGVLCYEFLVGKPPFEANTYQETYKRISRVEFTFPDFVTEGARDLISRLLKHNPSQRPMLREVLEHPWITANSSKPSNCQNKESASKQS

Measured: pIC50

COC(c1c(F)ccc(O)c1F)c1c[nH]c2ncc(Br)cc12 (centres unmarked) [Compound P-0126, 3-[(5-Bromo-1H-pyrrolo[2,3-b]pyridin-3-yl)-methoxy-methyl]-2,4-difluoro-phenol]
≥ 5.00: EphB2 | Yes | B-Raf V600E | B-Raf | Kdr

O=C(c1ccccc1F)c1c[nH]c2nccc(-c3cccnc3)c12 [Compound P-0062]
≥ 5.00: EphB2 | Yes | B-Raf V600E

CC(=O)Nc1cccc(-c2ccnc3[nH]cc(C(=O)c4cccc(Cl)c4Cl)c23)c1 [Compound P-0186]
≥ 5.00: EphB2 | B-Raf V600E | Ret

NC(=O)c1cccc(-c2ccnc3[nH]cc(C(=O)c4cccc(Cl)c4Cl)c23)c1 [Compound P-0139]
≥ 5.00: EphB2 | Yes | B-Raf V600E | Ret | Btk | Kdr

O=C(c1cccc(O)c1)c1c[nH]c2ncc(-c3cc(F)cc(F)c3)cc12 [Compound P-0074]
≥ 5.00: EphB2 | Yes | Abl | B-Raf V600E | Btk | Kdr

COc1cccc(Sc2c[nH]c3ncc(Br)cc23)c1 [Compound P-0145]
≥ 5.00: EphB2 | Yes | Fms | Btk | Kdr

Brc1cnc2[nH]cc(Sc3ccccc3)c2c1 [Compound P-0125]
≥ 5.00: EphB2 | Yes | Btk | Kdr

CCc1cnc2[nH]cc(C(=O)c3cccc(O)c3)c2c1 [Compound P-0059]
not listed: Abl | Fms | Stk6
≥ 5.00: all other assays above

COc1ccc(-c2ccnc3[nH]cc(C(=O)c4cccc(Cl)c4Cl)c23)cn1 [Compound P-0107]
≥ 5.00: EphB2 | Yes | B-Raf V600E | Ret | Btk | Kdr

O=C(c1cccc(Cl)c1Cl)c1c[nH]c2nccc(-c3cccnc3)c12 [Compound P-0043]
not listed: B-Raf | Abl | Fms | Kit | Jnk3
≥ 5.00: all other assays above
